# According to patent publication US8946224B2, “Substituted [1,2,4]triazolo[4,3-A]pyrazines for medicaments and pharmaceutical compositions” (Redx Pharma Limited, priority 2010, dated 2015):
# Where “and” joins values, the source holds several entries; their conditions need not be identical. Identical values can stand only once. Like-named read-outs stand apart in the source and are kept apart here. Non-standard residues stand in square brackets, D forms with d. Residues, ends and D or L forms follow the SMILES beside them. Sta = CC(C)C[C@H](N)[C@@H](O)CC(=O)O
# What was measured:
# plasma triglycerides = assay: Rat plasma triglyceride levels after 3 or 5 days BID treatment; assay type: in vivo; conditions: 25 mg/kg po BID for 3 or 5 days, 16 hours after the last dose
# Description: The efficacy of particular rosuvastatin compounds was then determined in vivo.
# 112 male SD rats (Harlan) were housed in groups of 6 under a 12 h light dark cycle (lights on 07.00 h) with free access to food (normal laboratory chow) and water. Animals between 148-183 g were allocated to treatment groups of 8 balanced by body weight and treatments were balanced across cages.
# The rosuvastatin analogues were made up in 10% PEG300/10% cremophor/80% methyl cellulose (0.5%) (vehicle 1) to make a 5 mg/mL solution. The rosuvastatin compounds used were:
# Rosuvastatin was formulated in 0.5% Tween in 0.5% methyl cellulose (vehicle 2) at 5 mg/kg as a suspension.
# Rats were orally dosed with vehicle 1, one of the rosuvastatin analogues in vehicle 1 (25 mg/kg), vehicle 2 or rosuvastatin in vehicle 2 (25 mg/kg po), BID for 3 or 5 days.
# Sixteen hours after the last treatment, terminal plasma samples were taken, stored at −20° C., and transported on dry ice for analysis of triglyceride levels.
# Data for each time-point were analysed by 1-way ANOVA and post-hoc Dunnett's test.
# DPPIV = DPPIV (Homo sapiens, UniProt P27487); assay: DPPIV protease inhibition, substrate Gly-Pro-AMC (Example 97); assay type: biochemical
# DPPIV, sequence (P27487 whole entry, species assumed): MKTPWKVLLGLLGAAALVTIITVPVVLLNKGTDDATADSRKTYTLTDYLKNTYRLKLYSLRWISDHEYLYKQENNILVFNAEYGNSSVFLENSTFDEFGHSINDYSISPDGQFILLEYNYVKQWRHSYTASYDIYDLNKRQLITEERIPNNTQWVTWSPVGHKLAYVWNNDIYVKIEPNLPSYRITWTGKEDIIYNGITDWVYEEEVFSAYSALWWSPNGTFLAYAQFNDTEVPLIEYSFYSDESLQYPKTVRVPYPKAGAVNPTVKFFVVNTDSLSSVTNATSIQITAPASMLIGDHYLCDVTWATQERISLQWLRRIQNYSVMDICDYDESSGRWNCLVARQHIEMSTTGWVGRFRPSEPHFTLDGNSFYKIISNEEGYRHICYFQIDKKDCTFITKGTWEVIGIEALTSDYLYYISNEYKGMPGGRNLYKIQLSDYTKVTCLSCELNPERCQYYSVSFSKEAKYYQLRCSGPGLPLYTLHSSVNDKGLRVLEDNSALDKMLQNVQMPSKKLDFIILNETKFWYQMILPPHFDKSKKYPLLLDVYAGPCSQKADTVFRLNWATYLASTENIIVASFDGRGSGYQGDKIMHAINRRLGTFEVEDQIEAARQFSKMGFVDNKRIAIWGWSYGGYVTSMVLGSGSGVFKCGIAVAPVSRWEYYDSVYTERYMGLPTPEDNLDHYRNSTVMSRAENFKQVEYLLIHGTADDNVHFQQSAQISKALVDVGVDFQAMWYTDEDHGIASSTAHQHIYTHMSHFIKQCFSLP
# Description: (§1) The solutions of the compounds to be tested were prepared in DMSO at a concentration of 10 mM, divided into aliquots and stored at −20° C. The stock solutions were further diluted with assay buffer to make final test solutions. All the final test solutions contained no more than 2.0% DMSO.
# (§2) Data were recorded by PHEARstar^PLUS.
# (§3) Each assay was repeated for each compound 10 times.
# [1] = tested on: PathHunter NHRPro cell lines; assay: PathHunter NHRPro cell assay, agonist format (Examples 90-92); assay type: cell-based; conditions: RARβ, NHR Protein Interaction; for EC50: read-out: RC50 (EC50); for Emax: read-out: Max Response
# Description: Methodology for Examples 90-92 Cell Handling
# PathHunter NHRPro cell lines were expanded from freezer stocks in T25 flasks according to standard procedures and maintained in selective growth media prior to assay.
# Once it was established that the cells were healthy and growing normally, cells were passaged from flasks using cell dissociation reagent and seeded into white walled clear bottom 384-well microplates for compound profiling.
# For profiling, cells were seeded at a density of 10000 cells per well in a total volume of 20 μL and were allowed to adhere and recover overnight prior to compound addition. Media contained charcoal-dextran filtered serum to reduce the level of hormones present.
# Intermediate dilution of compound stocks were generated such that 5 μL of 5× compound could be added to each well with a final DMSO concentration of 1% of total volume.
# For profiling compound in agonist mode, the cells were incubated in the presence of compound at 37° C. for 5 hours.
# After appropriate compound incubation, assay signal was generated through a single addition of 15 μL (50% v/v) of PathHunter Detection reagent cocktail for agonist and antagonist assays respectively followed by one hour incubation at room temperature.
# Microplates were read following signal generation with a PerkinElmer Envision™ instrument for chemiluminescent signal detection.
# Dose curves in the presence and absence of compound were plotted using GraphPad Prism or Activity Base.
# For the agonist mode, percentage activity was calculated using the following formula: % Activity=100%×(Mean RLU of test sample−mean RLU of vehicle control)/(mean MAX RLU control ligand−mean RLU of vehicle control).
# [2] = tested on: anaerobic bacterial strains; assay: microbe, parasite or virus in culture; assay type: cell-based, bacteria; conditions: read-out: MIC (>90%)
# [3] = molecular target: neuraminidase of oseltamivir-sensitive influenza virus (UniProt P03468); assay type: biochemical
# neuraminidase of oseltamivir-sensitive influenza virus, sequence (P03468 whole entry, looked up): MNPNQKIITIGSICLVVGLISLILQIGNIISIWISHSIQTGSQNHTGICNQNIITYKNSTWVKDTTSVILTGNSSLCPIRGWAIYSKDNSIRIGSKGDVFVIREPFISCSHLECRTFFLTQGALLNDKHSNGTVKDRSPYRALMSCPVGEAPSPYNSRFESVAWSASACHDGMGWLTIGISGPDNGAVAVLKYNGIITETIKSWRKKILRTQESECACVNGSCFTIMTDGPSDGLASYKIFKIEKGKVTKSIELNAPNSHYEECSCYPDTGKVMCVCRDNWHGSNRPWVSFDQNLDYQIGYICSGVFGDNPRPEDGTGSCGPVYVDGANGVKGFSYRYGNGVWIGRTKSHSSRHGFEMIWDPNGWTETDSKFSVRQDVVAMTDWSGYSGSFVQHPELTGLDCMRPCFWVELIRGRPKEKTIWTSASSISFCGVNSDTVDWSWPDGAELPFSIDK
# HepG2 cells = assay: HepG2 cytotoxicity, MTT, 72 hours (Examples 93-95); assay type: cell-based; conditions: Cell Loss, Example 94, dosed 0.02-50 μM
# Description: Methodology for Examples 93-95
# A number of analogues were tested for their ability to kill cancer cells.
# HepG2 cells were plated on 96-well tissue culture treated polystyrene plates at 0.5×10^4 cells in 100 μL per well. After 24 hr the cells are dosed with test compound at a range of concentrations and incubated for 72 hours. One hour prior to the end of the incubation period, the cells are loaded with MU [yellow; 3-(4,5-dimethyl-2-thiazolyl)-2,5-diphenyl-2H-tetrazolium bromide], the plates are dried and re-solubilised using DMSO. The plates are then scanned using SpectraFluor Plus (TECAN).
# Cytotoxicity was assessed using MU. The assay provides a measurement of mitochondrial dehydrogenase activity and cell loss.
# A decrease can indicate a loss of cells indicating toxicity due to necrosis, apoptosis or a reduction in cellular proliferation.
# A decrease can also indicate an effect on mitochondrial function as mitochondrial dehydrogenasesreduce the MTT [yellow; 3-(4,5-dimethyl-2-thiazolyl)-2,5-diphenyl-2H-tetrazolium bromide] to formazan. The formazan is detected in this assay.
# The cells were dosed at concentrations of 0.04, 0.1, 0.4, 1, 4, 10, 40 and 100 μM. The assay was repeated three times at each concentration.
# AC50=The concentration at which 50% maximum effect is observed for each cell health parameter.
# The cells were dosed at concentrations of 0.02, 0.05, 0.2, 0.5, 2, 5, 20 and 50 μM. The assay was repeated three times at each concentration.
# The cells were dosed at concentrations of 0.04, 0.1, 0.4, 1, 4, 10, 40 and 100 μM for bexarotene and the compound of formula 102 when Z is CH═NOH (compound 13a). The cells were dosed at concentrations of 0.02, 0.05, 0.2, 0.5, 2, 5, 20 and 50 μM for the compound of formula 102 when Z is CH═NOMe (compound 13b). The assay was repeated three times at each concentration.
# renin = molecular target: T1, renin (Homo sapiens, UniProt P00797); assay: Renin inhibition (Comparative Example 98); assay type: biochemical
# T1 sequence (P00797 67-406): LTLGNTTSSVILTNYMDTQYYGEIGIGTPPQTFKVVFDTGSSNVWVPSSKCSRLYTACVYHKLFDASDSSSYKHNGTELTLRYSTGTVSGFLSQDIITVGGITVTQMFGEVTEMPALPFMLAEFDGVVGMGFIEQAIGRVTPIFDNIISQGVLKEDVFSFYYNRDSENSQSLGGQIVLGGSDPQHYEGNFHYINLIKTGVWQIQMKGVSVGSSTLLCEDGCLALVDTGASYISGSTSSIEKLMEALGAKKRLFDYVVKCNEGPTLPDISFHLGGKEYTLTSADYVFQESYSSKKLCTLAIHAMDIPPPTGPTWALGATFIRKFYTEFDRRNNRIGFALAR
# Description: as §1, §2, §3
# [4] = tested on: PathHunter NHRPro cell lines; assay: PathHunter NHRPro cell assay, agonist format (Examples 90-92); assay type: cell-based; conditions: for EC50: read-out: RC50 (EC50)
# [5] = Bacteroides fragilis, ATCC25293, 48 h
# [6] = Prevotella melaninogenica, ATCC25845, 48 h
molecule,measurement,setting,value
COC1C[C@H](OC(=O)c2cccnc2)C[C@@H](/C=C/c2c(-c3ccc(F)cc3)nc(N(C)S(C)(=O)=O)nc2C(C)C)O1 (stereo partly shown),In vivo (plasma triglycerides),plasma triglycerides,Reduction in plasma triglycerides
CC(C)OC1C[C@H](OCc2ccccc2)C[C@@H](/C=C/c2c(-c3ccc(F)cc3)nc(N(C)S(C)(=O)=O)nc2C(C)C)O1 (stereo partly shown),In vivo (plasma triglycerides),plasma triglycerides,Reduction in plasma triglycerides
"CON=C(CC(=O)N1CCn2c(nnc2C(F)(F)F)C1)Cc1cc(F)c(F)cc1F (mixture of isomers) [Compound 24b, 3-(Methoxyimino)-1-(3-(trifluoromethyl)-5,6-dihydro-[1,2,4]triazolo[4,3-a]pyrazin-7(8H)-yl)-4-(2,4,5-trifluorophenyl)butan-1-one]",Activity as inhibitor of DPPIV (in words),DPPIV,did not exhibit significant activity
CC1=C(/C=C/C(C)=C\C=C\C(C)=C\C(=O)O)C(C)(C)CCC1 [9 Cis Retanoic acid],Max Response,[1],87.826 and 98.978
same,EC50,[1],0.00504 µM and 0.00714 µM
COc1ccc(-c2ccc3cc(C(=O)O)ccc3c2)cc1C12CC3CC(CC(C3)C1)C2 [Adapalene],Emax,[1],147%
same,EC50,[1],0.0018 µM
"COC(Cn1c([N+](=O)[O-])cnc1C)OC [Compound 3a, 1-(2,2-Dimethoxyethyl)-2-methyl-5-nitro-1H-imidazole]",MIC,[2]; [5],0.5 µg/mL
same,MIC,"[2]; Clostridioides difficile, 48 h",≤ 0.25 µg/mL
same,MIC,"[2]; Clostridium perfringens, 48 h",1 µg/mL
same,MIC,[2]; [6],0.5 µg/mL
"CON=CCn1c([N+](=O)[O-])cnc1C [Compound 3b, 2-(2-Methyl-5-nitro-1H-imidazol-1-yl)acetaldehyde O-methyl oxime]",MIC,[2]; [5],0.5 µg/mL
same,MIC,"[2]; Clostridioides difficile, 48 h",≤ 0.25 µg/mL
same,MIC,"[2]; Clostridium perfringens, 48 h",1 µg/mL
same,MIC,[2]; [6],0.5 µg/mL
"COc1ccc(-c2ccc3cc(C=NO)ccc3c2)cc1C12CC3CC(CC(C3)C1)C2 [Compound 5a, 6-(3-(Adamantan-1-yl)-4-methoxyphenyl)-2-naphthaldehyde oxime]",Emax,[1],45.1%
same,EC50,[1],1.27 µM
"CON=Cc1ccc2cc(-c3ccc(OC)c(C45CC6CC(CC(C6)C4)C5)c3)ccc2c1 [Compound 5b, 6-(3-(Adamantan-1-yl)-4-methoxyphenyl)-2-naphthaldehyde O-methyl oxime]",Emax,[1],81.1%
same,EC50,[1],0.83 µM
"N[C@@H](CCN1CCn2c(nnc2C(F)(F)F)C1)Cc1cc(F)c(F)cc1F [Compound 24a, (R)-4-(3-(Trifluoromethyl)-5,6-dihydro-[1,2,4]triazolo[4,3-a]pyrazin-7(8H)-yl)-1-(2,4,5-trifluorophenyl)butan-2-amine]",Activity as inhibitor of DPPIV (in words),DPPIV,showed an activity
same,IC50,"DPPIV; DPPIV, substrate Gly-Pro-AMC",0.0813 µM
COc1ccc(-c2ccc3cc(C=O)ccc3c2)cc1C12CC3CC(CC(C3)C1)C2 [Formula 135; Z is C(O)H],Max Response,[1],115.93
same,EC50,[1],0.142 µM
COc1ccc(-c2ccc3cc(CO)ccc3c2)cc1C12CC3CC(CC(C3)C1)C2 [Formula 135; Z is CH2OH],Max Response,[1],131.9
same,EC50,[1],0.199 µM
"Cc1ncc([N+](=O)[O-])n1CCO [Metronidazole, metronidazole, reference compound]",MIC,[2]; [5],0.25 µg/mL
same,MIC,"[2]; Clostridioides difficile, 48 h",≤ 0.25 µg/mL
same,MIC,"[2]; Clostridium perfringens, 48 h",0.5 µg/mL
same,MIC,[2]; [6],0.25 µg/mL
"CCOC(=O)C1=C[C@@H](OC(CC)CC)[C@H](NC(C)=O)[C@@H](N)C1 [Oseltamivir, oseltamivir, reference compound]",EC90,[3],0.0013 µM
CC(=O)c1c(C)c2cnc(Nc3ccc(N4CCNCC4)cn3)nc2n(C2CCCC2)c1=O [PD-0332991],MEC (minimum effective concentration that significantly crosses vehicle threshold),HepG2 cells,0.2 µM
same,AC50,"HepG2 cells; Homo sapiens, HepG2, read-out: AC50 (concentration at which 50% maximum effect is observed)",1.93 µM
"CC(=O)N[C@@H](Cc1c[nH]cn1)C(=O)N1CCC[C@H]1C(=O)N[C@@H](Cc1ccccc1)C(=O)N[C@H](C(=O)N[C@@H](CC(C)C)[C@@H](O)CC(=O)N[C@@H](CC(C)C)C(=O)N[C@@H](Cc1ccccc1)C(N)=O)C(C)C [Positive control, Ac-HPFV-(Sta)-LF-NH2] (Ac-HPFV[Sta]LF-NH2)",IC50,renin,0.0084 µM
"CC(C)c1nc(N(C)S(C)(=O)=O)nc(-c2ccc(F)cc2)c1/C=C/[C@@H](O)C[C@@H](O)CC(=O)O [Rosuvastatin, reference compound]",In vivo (plasma triglycerides),plasma triglycerides; 25 mg/kg,Reduction in
same,In vivo (plasma triglycerides),"plasma triglycerides; listed as rosuvastatin, 25 mg/kg",marked reduction in plasma triglycerides
NC(=O)CC[C@@H]1NC(=O)[C@H](Cc2ccccc2)NC(=O)[C@H](Cc2ccc(O)cc2)NC(=O)[C@@H](N)CSSC[C@@H](C(=O)N2CCC[C@H]2C(=O)N[C@@H](CCCN=C(N)N)C(=O)NCC(N)=O)NC(=O)[C@H](CC(N)=O)NC1=O [Vasopressin],Max Response,"[4]; AVPR2, Arrestin",101.99
same,EC50,"[4]; AVPR2, Arrestin",0.000767 µM
COCCCOc1cc(CC(CC2NC(=O)OC2CC(C(=O)NCC(C)(C)C#N)C(C)C)C(C)C)ccc1OC (stereo not shown) [comparative example],Anti-influenza neuraminidase activity (in words),[3],No activity was observed
"Angiotensin II (DRVYIHPF; Angiotensin-2; UniProt P01019 25-32, looked up)",Max Response,"[4]; AGTR1, Arrestin",101.02
same,EC50,"[4]; AGTR1, Arrestin",0.0102 µM
